Test results as given in patent US6638919B2, “Antiviral purine derivatives” (University College Cardiff Consultants Limited, priority 2001, dated 2003).
Counter-ions that a name gives are not always drawn. Like-named read-outs stand apart in the source and are kept apart here.

Legend:
MSV [1] = assay: Inhibition of MSV; type: cell-based; settings: read-out: EC50 MSV
Method: EC50 MSV: EC50 μM for inhibition of MSV

HIV-2 [2] = assay: Inhibition of HIV-2 giant cell formation in CEM cells; type: cell-based
Method: (§1) Then 100 μL of the infected cell suspension was transferred to microtiter plate wells and mixed with 100 μL of the appropriate dilutions of the test compounds.
HIV1 CEM: EC50 in μM for inhibition of […] in CEM cells.
HIV2 CEM: EC50 in μM for inhibition of HIV-2 in CEM cells

MSV [3] = assay: Minimum cytotoxic concentration in MSV assay; type: cell-based; set-up: unit not given here; settings: Table III
Text: MCC MSV: minimum cytotoxic concentration in MSV essay.

HIV-1 = assay: Inhibition of HIV-1 giant cell formation in CEM cells; type: cell-based
Method: as §1
HIV 1 CEM: EC50 in μM for inhibition of HIV1 in CEM cells

[4] = Toxicity to mock-infected CEM cells (CC50); type: cell-based; settings: human
Method: as §1
(§2) CC50 CEM: CC50 in μM for toxicity to CEM cells.
(§3) CC50 CEM: CC50 μM for toxicity to CEM cells

CEM cells = assay: Toxicity to mock-infected CEM cells (CC50); type: cell-based; settings: Table III; toxicity to CEM cells; read-out: CC50 CEN
Method: as §1, §2, §3

[5] = Acid stability, dilute HCl pH1, simulated stomach conditions; type: physicochemical; settings: 0.1N HCl pH1, 25° C.
Method: Compounds were tested for their stability towards acid-mediated hydrolytic decomposition employing a test designed to simulate stomach conditions. Each compound was incubated in dilute HCl of pH1 for 24 hours at 25° C. 0.3 mg of compound were added to 1 mL of 0.1N HCl at 25° C. HPLC was run immediately for time=0 and at intervals up to approximately 24 hours.

[6] = Biological stability in heparinised human plasma; settings: heparinised human plasma, 37° C.
Method: Each compound was incubated in normal heparinised human plasma at 37° C. for 4 hours. […] Drug concentrations were then determined by LC/MS/MS analysis using standard methods.

HIV-2 [7] = assay: Inhibition of HIV-2 in CEM.TK- cells; type: cell-based; settings: Table III; EC50 for inhibition of HIV-2 in CEM.TK- cells; read-out: HIV2 CEM. TK.
Method: Cells were infected with HIV-1 as previously described [Balzarini et al. AIDS (1991), 5, 21-28]. Briefly, 5×10^5 cells per milliliter were infected with HIV-1 or HV-2 at 100 CClD50 (50% cell culture infective dose) per milliliter of cell suspension. Then 100 μL of the infected cell suspension was transferred to microtiter plate wells and mixed with 100 μL of the appropriate dilutions of the test compounds. After 4 days giant cell formation was recorded microscopically in the HIV-infected cell cultures [CEM].
HIV2CEM.TK- EC50 μM for inhibition of IV-2 in CEM=cells

[8] = Table III, toxicity to CEM cells, read-out: CC50 CEN
[9] = Human immunodeficiency virus 2, CCRF-CEM, Table III, EC50 for inhibition of HIV-2 in CEM cells, read-out: HIV2 CBM
[10] = Human immunodeficiency virus 1, CCRF-CEM, Table III, EC50 for inhibition of HIV1 in CEM cells, read-out: HIV1 CBM
[11] = Table III, EC50 for inhibition of HIV-2 in CEM cells, read-out: HIV2 CBM
[12] = Table III, EC50 for inhibition of HIV1 in CEM cells, read-out: HIV1 CBM
[13] = Human immunodeficiency virus 2, CCRF-CEM, 96 h, CEM cells, giant cell formation after 4 days, Tables I and II, read-out: EC50/μM HIV-2 CEM
[14] = Human immunodeficiency virus 1, CCRF-CEM, 96 h, CEM cells, giant cell formation after 4 days, Tables I and II, read-out: EC50/μM HIV-1 CEM
[15] = mock-infected CEM cells, Tables I and II, read-out: CC50/μM CEM

Row | Compound | MCCMSV (MSV [3]) | EC50 (MSV [1]; Table III, inhibition of MSV) | EC50 (HIV-2 [2]; [11]) | EC50 (HIV-1; [12]) | CC50 (CEM cells) | further results
1 | COC(=O)[C@@H]1CCCN1P(=O)(OC[C@@H]1C=CC(n2cnc3c(NC4CC4)nc(N)nc32)C1)Oc1ccccc1 (stereo partly drawn) [Compound 1719] | ≧100 |  |  |  |  | EC50 (MSV [1]): 11600 nM; EC50 (HIV-2 [2]; Human immunodeficiency virus 2, CCRF-CEM, read-out: HIV2 CBM): 5.5 µM; EC50 (HIV-1; Human immunodeficiency virus 1, CCRF-CEM, read-out: HIV1 CBM): 4 µM; CC50 at 4 days [4, 8]: 19.4 µM
2 | C[C@H](NP(=O)(OC[C@@H]1C=CC(n2cnc3c(NC4CC4)nc(N)nc32)C1)Oc1ccccc1)C(=O)OCC1CCCC1 (stereo partly drawn) [Compound 1722] |  |  |  |  |  | EC50 (HIV-2 [2]; [9]): 0.48 µM; EC50 (HIV-1; [10]): 0.13 µM; CC50 [4, 8]: 15200 nM
3 | C[C@H](NP(=O)(OC[C@@H]1C=C[C@H](n2cnc3c(NC4CC4)nc(N)nc32)C1)Oc1ccccc1)C(=O)OC(C)(C)C (stereo partly drawn) [Compound 1645, (1S,4R)-4-(2-amino-6-cyclopropylamino-9H-purin-9-yl)-2-cyclopentene-1-methanol O-(phenyl-tertbutyloxy-L-alaninyl)-phosphate] | >20 | 11700 nM | 6 µM | 3.7 µM | 33000 nM | 
4 | COC(=O)[C@H](CC1CCCCC1)NP(=O)(OC[C@@H]1C=C[C@H](n2cnc3c(NC4CC4)nc(N)nc32)C1)Oc1ccccc1 (stereo partly drawn) [Compound 1709, (1 S,4R)-4-(2-amino-6-cyclopropylamino-9H-purin-9-yl)-2-cyclopentene-1-methanol O-Phenyl-(methoxy-3-cyclohexane-L-alaninyl)-phosphate] | >4 | 1720 nM | 2 µM | 1.2 µM | 16000 nM | 
5 | C[C@H](NP(=O)(OC[C@@H]1C=C[C@H](n2cnc3c(NC4CC4)nc(N)nc32)C1)Oc1ccccc1)C(=O)OC1CCCCC1 (stereo partly drawn) [Compound 1707, (1S,4R)-4-(2-amino-6-cyclopropylamino-9H-purin-9-yl)-2-cyclopeniene-1-methanol O-Phenyl-(c-hexyloxy-L-alaninyl)-phosphate] | >4 | 2840 nM | 0.25 µM | 0.33 µM | 10200 nM | 
6 | CC(C)CCCOC(=O)[C@H](C)NP(=O)(OC[C@@H]1C=CC(n2cnc3c(NC4CC4)nc(N)nc32)C1)Oc1ccccc1 (stereo partly drawn) [Compound 1721, (1S,4R)-4-(2-amino-6-cyclopropylamino-9H-purin-9-y))-2-cyclopentene-1-methanol O-[phenyl (4-methyl-1-pentyloxy-L-alaninyl)phosphate] | >4 | 2200 nM |  |  |  | EC50 (HIV-2 [2]; [9]): 0.14 µM; EC50 (HIV-1; [10]): 0.05 µM; CC50 [4, 8]: 12500 nM
7 | COC(=O)C(CC(C)C)NP(=O)(OC[C@@H]1C=CC(n2cnc3c(NC4CC4)nc(N)nc32)C1)Oc1ccccc1 (stereo partly drawn) [Compound 1718] | >20 | 8840 nM |  |  |  | EC50 (HIV-2 [2]; [9]): 1.48 µM; EC50 (HIV-1; [10]): 0.85 µM; CC50 [4, 8]: 22000 nM
8 | CC(C)OC(=O)[C@H](C)NP(=O)(OC[C@@H]1C=C[C@H](n2cnc3c(NC4CC4)nc(N)nc32)C1)Oc1ccccc1 (stereo partly drawn) [Compound 1661, (1S,4R)-4-(2-amino-6-cyclopropylamino-9H-purin-9-yl)-2-cyclopentene-1-methanol O-Phenyl-(i-propoxy-L-alaninyl)-phosphate] | ≧20 | 2750 nM | 0.85 µM | 0.5 µM | 9180 nM | 
9 | Nc1nc(NC2CC2)c2ncn([C@H]3C=C[C@@H](CO)C3)c2n1 [Abacavir, (1S,4R)-4-[2-anino-6-(cyclopropylamino)-9H-purin-9-yl]-2-cyclopentene-1-methanol, reference compound] |  |  |  |  |  | EC50 (HIV-2 [2]; [13]): 3 µM; EC50 (HIV-1; [14]): 1.9 µM; CC50 at 4 days [4, 15]: 78 µM
10 | CC(C)COC(=O)[C@H](C)NP(=O)(OC[C@@H]1C=C[C@H](n2cnc3c(NC4CC4)nc(N)nc32)C1)Oc1ccccc1 (stereo partly drawn) [Compound 1672, (1S,4R)-4-(2-:amino-6-cyclopropylamino-9H-purin-9-yl-2-cyclopentene-1-methanol O-(phenyl (2-methylpropyl)oxyalaninyl phosphate)] | >4 | 1980 nM | 0.1 µM | 0.09 µM | 14400 nM | 
11 | C[C@H](NP(=O)(OC[C@@H]1C=C[C@H](n2cnc3c(NC4CC4)nc(N)nc32)C1)Oc1ccccc1)C(=O)OCC(C)(C)C (stereo partly drawn) [Compound 1673, (1S ,4R)-442-amino6-cyclopropylamino-9H-purin-9-y)-2-cyclopentene-1-methanol O-(phenyl (2,2-dimethylpropyl)oxyalaninyl phosphate)] | >4 | 2920 nM | 0.18 µM | 0.15 µM | 8070 nM | 
12 | Nc1nc2c(ncn2[C@H]2C=C[C@@H](CO)C2)c(=O)[nH]1 [(1R, 4S)-9-{4-(hydroxymethyl)-2-cyclopenten-1-yl]guanine, reference compound] |  |  |  |  |  | EC50 (HIV-2 [2]; [13]): 2.3 µM; EC50 (HIV-1; [14]): 2 µM; CC50 at 4 days [4, 15]: 157 µM
13 | COC(=O)[C@H](C)NP(=O)(OC[C@@H]1C=C[C@H](n2cnc3c(N)ncnc32)O1)Oc1ccccc1 (stereo partly drawn) [Compound 1001, 2′, 3′-dideoxy-2′, 3′-didehydroadenosine-5′-(phenylmethoxyalaninyl) phosphate] |  |  |  |  |  | time to disappearance in acid [5]: < 1 min; Compound left (%) ([5]; time 0 hr): 0%; Compound left (%) ([5]; time 17 hr): 0%; Half-life [6]: 4.6 h; % Remaining at 4 hours ([6]; 4 hours): 52%
14 | COC(=O)[C@H](C)NP(=O)(OC[C@@H]1C=C[C@H](n2cnc3c(NC4CC4)nc(N)nc32)C1)Oc1ccc(Cl)cc1 (stereo partly drawn) [Compound 1620, (1S,4R)-4-(2-amino-6-cyclopropylamino-9H-purin-^9-yl)-2-cyclopentene-1-methanol O-[4-chlorophenyl-(methoxy-L-alaninyl)]-phosphate] |  |  | 0.063 µM | 0.014 µM | 4700 nM | EC50 (HIV-2 [7]): 13 nM
15 | (1S,4R)-4-(2-amino6cyclopropyl-2 -amino-9H-purin-9-yl)-2-cyclopentene-1-methanol O-((P-(2 2-dimethoxy-L-propionic acid methyl ester)-phenyl)methoxyalaninyl phosphate) [Compound 1671] | >20 | 9200 nM | 0.12 µM | 0.1 µM | 12100 nM | 
16 | CCCCOC(=O)[C@H](C)NP(=O)(OC[C@@H]1C=C[C@H](n2cnc3c(NC4CC4)nc(N)nc32)C1)Oc1ccccc1 (stereo partly drawn) [Compound 1647, (1S,4R)-4-(2-amino-6-cyclopropylamino-9H-purin-9-yl)-2-cyclopentene-1-methanol O-Phenyl-(n-butoxy-L-alaninyl)-phosphate] | >4 | 620 nM | 0.17 µM | 0.085 µM | 8230 nM | 
17 | C[C@@H](NP(=O)(O)OC[C@@H]1C=C[C@H](n2cnc3c(NC4CC4)nc(N)nc32)C1)C(=O)O [Compound 1595, (1S,4R)-4-(2-amino-6-cyclopropylamino-9H-purin-9-yl)-2-cyclopentene-1-methanol O-(D-alaninyl)-phosphate diammonium salt] |  |  | 1.2 µM |  | 213000 nM | EC50 (HIV-2 [7]): 800 nM
18 | COC(=O)[C@H](CCSC)NP(=O)(OC[C@@H]1C=C[C@H](n2cnc3c(NC4CC4)nc(N)nc32)C1)Oc1ccccc1 (stereo partly drawn) [Compound 1715, (1S,4R)-4-(2-amino-6-cyclopropylamino-9H-purin-9-yl)-2-cyclopentene-1-methanol O-(phenylmethoxy-L-methionyl phosphate)] | >20 | 10200 nM | 2.73 µM | 1.15 µM | 48900 nM | 
